# In patent US12161630B2, “Methods to control infection using new generation small molecule growth inhibitors” (priority 2017, dated 2024):
# Legend:
# [1] = system: Salmonella Albany; assay: MIC and MBC dose-response, serotype Albany; type: cell-based, Salmonella enterica; conditions: MIC identical to MBC
# Description: (§1) An overnight Salmonella suspension was normalized at 0.05 OD600 (approximately 3.5×10^7 CFU/ml) with an adjusted M9 minimal broth medium (12.7 mM Na2HPO4 7H2O; 22 mM KH2PO4; 18.7 mM NH4Cl; 2 mM MgSO4; 0.1 mM CaCl2; 0.4% glucose; 0.05% casamino acids). 100 μL of the suspension plus 2 μl of SMs (200 μM) were transferred into each well of a sterile, non-treated, flat bottom 96-well plate. Bacteria alone (negative control, NC), 2% DMSO plus bacteria (DMSO control), 20 μg/ml chloramphenicol or 50 μg/ml kanamycin plus bacteria (positive controls, PC), and M9 medium only were used as control. Plates were incubated in a Sunrise™ Tecan kinetic microplate reader for 12 hrs at 37° C. and the optical density (OD) was measure at 600 nm as described above. Percentage of inhibition=(OD600 SM−OD600 NC)/(OD600 NC)×100. […] Cultures from wells showing no turbidimetric increase were transferred onto a XLT4 agar plate. Plates were incubated at 37° C. for 36 hrs.
# (§2) Screens were performed as described in the primary screen. The lowest SM concentration with a static effect was considered as the minimal inhibitory concentration (MIC) and the lowest SM concentration with a cidal effect was considered as the minimal bactericidal concentration (MBC).
# [2] = system: Salmonella Braenderup; assay: MIC and MBC dose-response, serotype Braenderup; type: cell-based, Salmonella enterica; conditions: MIC identical to MBC
# [3] = system: S. typhimurium WT; assay: Antimicrobial resistance studies (single step and sequential passage); type: cell-based, Salmonella enterica subsp. enterica serovar Typhimurium LT2
# Description: Antimicrobial resistance studies: Single step and sequential passage resistance assays were performed as described (9). The MIC of the selected five SMs against S. typhimurium WT was used as reference for lethal (2×MIC) and sub-lethal (0.75×MIC) doses.
# The medium was allowed to solidify overnight in the dark at room temperature. The next day, 100 μl of S. typhimurium bacteria (approximately 10^9 CFU) was transferred onto the adjusted M9 agar containing 2×MIC of SMs. S. typhimurium WT growth in 2% DMSO, 20 μg/ml chloramphenicol, or 50 μg/ml kanamycin, and adjusted M9 medium only were used as controls. The plate was sealed with parafilm and incubated for 15 days in the dark at 37° C. After 15 days, 100 μl of LB broth was added to the wells of 24-well plate showing no colonies in order to resuspend the potential surviving bacteria and transferred into a 5 ml tube.
# The plate was incubated in the dark at 37° C., 175 rpm for 12 hrs. After this first passage, the plate was centrifuged for seven min at 4500 rpm. Supernatant was replaced with a fresh adjusted M9 broth media amended with 0.75×MIC of the corresponding SM. This procedure was repeated fourteen times. Following the 15th passage, a dose-response assay was performed on the remaining alive S. typhimurium bacteria as describe previously.
# [4] = system: Salmonella Heidelberg; assay: MIC and MBC dose-response, serotype Heidelberg; type: cell-based, Salmonella enterica; conditions: MIC identical to MBC
# Description: as §1, §2
# [5] = system: Salmonella Saint-Paul; assay: MIC and MBC dose-response, serotype Saint-Paul; type: cell-based; conditions: MIC identical to MBC
# Description: as §1, §2
# [6] = system: Salmonella Anatum; assay: MIC and MBC dose-response, serotype Anatum; type: cell-based, Salmonella enterica; conditions: MIC identical to MBC
# Description: as §1, §2
# [7] = system: Salmonella Enteritidis; assay: MIC and MBC dose-response, serotype Enteritidis; type: cell-based, Salmonella enterica; conditions: MIC identical to MBC
# Description: as §1, §2
# [8] = system: Salmonella Newport; assay: MIC and MBC dose-response, serotype Newport; type: cell-based, Salmonella enterica; conditions: MIC identical to MBC
# Description: as §1, §2
# [9] = system: Salmonella Javiana; assay: MIC and MBC dose-response, serotype Javiana; type: cell-based, Salmonella enterica; conditions: MIC identical to MBC
# Description: as §1, §2
# [10] = system: S. typhimurium WT; assay: MIC and MBC dose-response, serotype Typhimurium; type: cell-based, Salmonella enterica subsp. enterica serovar Typhimurium LT2; conditions: Salmonella serotype Typhimurium; MIC identical to MBC
# Description: as §1, §2
# [11] = system: S. typhimurium WT; assay: High-throughput primary screen for S. typhimurium growth inhibitors at 200 μM; type: cell-based, Salmonella enterica subsp. enterica serovar Typhimurium LT2; conditions: adjusted M9 minimal broth, 12 hrs, 37° C., bactericidal = 100% growth inhibition and no growth on XLT4 agar, bacteriostatic = 100% growth inhibition but growth on XLT4 agar
# Description: Identification of S. typhimurium growth inhibitors: The 4182 small molecules (SMs) were screened at 200 μM against S. typhimurium WT using HTS assay in a 96-well plate format. An overnight Salmonella suspension was normalized at 0.05 OD600 (approximately 3.5×10^7 CFU/ml) with an adjusted M9 minimal broth medium (12.7 mM Na2HPO4 7H2O; 22 mM KH2PO4; 18.7 mM NH4Cl; 2 mM MgSO4; 0.1 mM CaCl2; 0.4% glucose; 0.05% casamino acids). 100 μL of the suspension plus 2 μl of SMs (200 μM) were transferred into each well of a sterile, non-treated, flat bottom 96-well plate. Bacteria alone (negative control, NC), 2% DMSO plus bacteria (DMSO control), 20 μg/ml chloramphenicol or 50 μg/ml kanamycin plus bacteria (positive controls, PC), and M9 medium only were used as control. Plates were incubated in a Sunrise™ Tecan kinetic microplate reader for 12 hrs at 37° C. and the optical density (OD) was measure at 600 nm as described above. Percentage of inhibition=[…]. SMs were identified as growth inhibitors if their inhibition value after incubation was above 20% (value representing the inhibition level monitored with the DMSO controls). Cultures from wells showing no turbidimetric increase were transferred onto a XLT4 agar plate. Plates were incubated at 37° C. for 36 hrs.
# [12] = system: Kan^R S. typhimurium; assay: Preventive efficacy in S. typhimurium-infected G. mellonella larvae; type: in vivo, Galleria mellonella; conditions: 72 HPI; pretreated with 12.5 μg per larva 2 hrs before infection
# Description: FIGS. 4(A-B). Preventive antimicrobial efficacy of SM treatment in S. typhimurium-infected G. mellonella. Larva were first treated with 12.5 μg SMs per larva (50 mg/kg), incubated for 2 hrs at 37° C. in the dark, then infected with 10^4 CFU per larva, and further incubated at 37° C. in the dark for 72 hrs. FIG. 4A: G. mellonella larva survival rate. Survival rate was monitored every 12 hours for 72 hrs. Infected larva treated with chloramphenicol control (CK) had 100% survival. FIG. 4B: Bacterial quantification of Salmonella inside larvae following death of larva or, if alive, after 72 hours of incubation. Light black dot: larva still alive after 72 hrs post-inoculation (HPI); Black dot: larvae dead before 72 HPI.
# Effect of the selected four SMs on S. typhimurium intracellular survival in G. mellonella larvae: Wax moths were selected as mentioned previously in the toxicity assay section. First, the virulence of both Kan^R and WT S. typhimurium strains in G. mellonella was assessed. Briefly, a S. typhimurium suspension normalized at approximately 10^6 CFU/ml in 10 mM MgSO4 was used as the inoculum. […] Survival rate was monitored every 12 hrs. The bacterial quantification was performed once the larvae were considered dead (dark pigmentation or no reaction to a mechanical stimulus) or after the 72 hrs of incubation. […]
Compound,MIC/MBC [1],MIC/MBC [2],"resistance after repeated exposure at sub-lethal dose ([3]; 0.75×MIC in liquid medium, 15 passages at 37° C.)",resistance after single exposure at a lethal dose ([3]; 2×MIC in solid medium),"SM concentration at which resistant bacteria were able to grow ([3]; minimal growth condition, represents 4×MBC)",MIC/MBC [4],MIC/MBC [5],MIC/MBC [6],MIC/MBC [7],MIC/MBC [8],MIC/MBC [9],MIC/MBC [10],Effect on S. Typhimurium at 200 μM [11],survival of infected larvae [12]
"CN(CCO)CC(O)Cn1c2ccc(Br)cc2c2cc(Br)ccc21 (centres unmarked) [SM2, 1-(3,6-dibromo-9H-carbazol-9-yl)-3-[(2-hydroxyethyl)(methyl)amino]-2-propanol]",200 µM,200 µM,developed resistance mechanisms,developed resistance mechanisms,400 µM,200 µM,200 µM,200 µM,200 µM,200 µM,200 µM,100 µM,Bactericidal,–
O=C(N[C@H](CO)[C@H](O)c1ccc([N+](=O)[O-])cc1)C(Cl)Cl [chloramphenicol],–,–,–,–,–,–,–,–,–,–,–,–,–,100%
